Read-outs that look alike come from different tables or passages of the source.
Tested on: symmetric di-methyl arginine in Z-138 cells
Assay: Z-138 Methylation Assay (In Cell Western for symmetric di-methyl arginine and DNA content)
Type: cell-based
Conditions: 96 hours incubation, read-out: ICW EC50
Excerpt: [formula] Where top and bottom are the normally allowed to float, but may be fixed at 100 or 0 respectively in a 3-parameter fit. The Hill Coefficient normally allowed to float but may also be fixed at 1 in a 3-parameter fit. Y is the % inhibition and X is the compound concentration. Z-138 Methylation Assay
Z-138 suspension cells were purchased from ATCC (American Type Culture Collection, Manassas, Va.). RPMI/Glutamax medium, penicillin-streptomycin, heat inactivated fetal bovine serum, and D-PBS were purchased from Life Technologies, Grand Island, N.Y., USA. Odyssey blocking buffer, 800CW goat anti-rabbit IgG (H+L) antibody, and Licor Odyssey infrared scanner were purchased from Licor Biosciences, Lincoln, Nebr., USA. Symmetric di-methyl arginine antibody was purchased from EMD Millipore, Billerica, Mass., USA. 16% Paraformaldehyde was purchased from Electron Microscopy Sciences, Hatfield, Pa., USA.
Z-138 suspension cells were maintained in growth medium (RPMI 1640 supplemented with 10% v/v heat inactivated fetal bovine serum and 100 units/mL penicillin-streptomycin) and cultured at 37° C. under 5% CO2.
Cell Treatment, in Cell Western (ICW) for Detection of Symmetric Di-Methyl Arginine and DNA Content.
Z-138 cells were seeded in assay medium at a concentration of 50,000 cells per mL to a 384-well cell culture plate with 50 μL per well. Compound (100 nL) from 384 well source plates was added directly to 384 well cell plate. Plates were incubated at 37° C., 5% CO2 for 96 hours. After four days of incubation, 40 μL of cells from incubated plates were added to poly-D-lysine coated 384 well culture plates (BD Biosciences 356697). Plates were incubated at room temperature for 30 minutes then incubated at 37° C., 5% CO2 for 5 hours. After the incubation, 40 μL per well of 8% paraformaldehyde in PBS (16% paraformaldahyde was diluted to 8% in PBS) was added to each plate and incubated for 30 minutes. Plates were transferred to a Biotek 405 plate washer and washed 5 times with 100 μL per well of wash buffer (IX PBS with 0.1% Triton X-100 (v/v)). Next 30 μL per well of Odyssey blocking buffer were added to each plate and incubated 1 hour at room temperature. Blocking buffer was removed and 20 μL per well of primary antibody was added (symmetric di-methyl arginine diluted 1:100 in Odyssey buffer with 0.1% Tween 20 (v/v)) and plates were incubated overnight (16 hours) at 4° C. Plates were washed 5 times with 100 μL per well of wash buffer. Next 20 μL per well of secondary antibody was added (1:200 800CW goat anti-rabbit IgG (H+L) antibody, 1:1000 DRAQ5 (Biostatus limited) in Odyssey buffer with 0.1% Tween 20 (v/v)) and incubated for 1 hour at room temperature. The plates were washed 5 times with 100 μL per well wash buffer then 1 time with 100 μL per well of water. Plates were allowed to dry at room temperature then imaged on the Licor Odyssey machine which measures integrated intensity at 700 nm and 800 nm wavelengths. Both 700 and 800 channels were scanned.
First, the ratio for each well was determined by:
Each plate included fourteen control wells of DMSO only treatment (minimum inhibition) as well as fourteen control wells for maximum inhibition treated with 3 μM of a reference compound (Background wells). The average of the ratio values for each control type was calculated and used to determine the percent inhibition for each test well in the plate. Reference compound was serially diluted three-fold in DMSO for a total of nine test concentrations, beginning at 3 μM. Percent inhibition was determined and IC50 curves were generated using triplicate wells per concentration of compound. […]

EC50 (Homo sapiens) [nM]	EC50 [nM]	Molecule
< 100	–	CC(=O)N1CCC(Nc2cc(C(=O)NC[C@H](O)CN3Cc4ccccc4C3)ccn2)CC1 [compound 40]
> 1000	–	CC(=O)N1CCC(Nc2cc(C(=O)NC[C@H](O)CN3CCc4ccccc43)ccn2)CC1 [compound 44]
101 to 1000	–	O=C(CCc1nc2ccccc2[nH]1)NCC(O)CN1Cc2ccccc2C1 (stereo not shown) [compound 37]
< 100	–	O=C(NC[C@H](O)CN1Cc2ccccc2C1)c1cc(NC2COC2)nc(N2CCOCC2)n1 [compound 38]
101 to 1000	–	O=C(NC[C@H](O)CN1Cc2ccccc2C1)c1cc(NC2COC2)nc(C(F)(F)F)n1 [compound 36]
–	101 to 1000	N-(2-hydroxy-3-(isoindolin-2-yl)propyl)-2-((4-methyl-3,4-dihydro-2H-benzo[b][1,4]oxazin-5-yl)oxy)acetamide [compound 10]
> 1000	–	O=C(NC[C@H](O)CN1CCc2ccccc21)c1cc(NC2COC2)ncn1 [compound 42]
> 1000	–	CC(=O)N1CC(Nc2cc(C(=O)NC[C@H](O)CN3CCCCc4ccccc43)ncn2)C1 [compound 46]
> 1000	–	CC(=O)N1CC(Nc2cc(C(=O)NC[C@H](O)CN3CCCc4ccccc4C3)ncn2)C1 [compound 49]
> 1000	–	O=C(NC[C@H](O)CN1CCCc2ccccc2C1)c1cc(NC2COC2)ncn1 [compound 48]
> 1000	–	CC(=O)N1CCC(Nc2cc(C(=O)NC[C@H](O)CN3CCCc4ccccc4C3)ncn2)CC1 [compound 50]
> 1000	–	Cc1nc(NC2COC2)cc(C(=O)NC[C@H](O)CN2Cc3ccccc3C2)n1 [compound 35]
> 1000	–	CC(=O)N1CCC(Nc2cc(C(=O)NC[C@H](O)CN3CCc4ccccc43)ncn2)CC1 [compound 43]
> 1000	–	O=C(NC[C@H](O)CN1CCCCc2ccccc21)c1cc(NC2COC2)ncn1 [compound 45]
> 1000	–	CC(=O)N1CCC(Nc2cc(C(=O)NC[C@H](O)CN3CCCCc4ccccc43)ncn2)CC1 [compound 47]

Molecule	EC50 (Homo sapiens) [nM]	EC50 [nM]
CN(C)S(=O)(=O)c1ccccc1OCC(=O)NCC(O)CN1Cc2ccccc2C1 (stereo not shown) [compound 15, 2-(2-(N,N-dimethylsulfamoyl)phenoxy)-N-(2-hydroxy-3-(isoindolin-2-yl)propyl)acetamide]	101 to 1000	–
O=C(COc1ccccc1-c1cc[nH]n1)NCC(O)CN1Cc2ccccc2C1 (stereo not shown) [compound 7]	101 to 1000	–
O=C(COc1cccc2cccnc12)NCC(O)CN1Cc2ccccc2C1 (stereo not shown) [compound 19, N-(2-hydroxy-3-(isoindolin-2-yl)propyl)-2-(quinolin-8-yloxy)acetamide]	1000 to 10000	–
C[C@@H](Oc1cccc2cccnc12)C(=O)NC[C@H](O)CN1Cc2ccccc2C1 [compound 5, (R)—N—((S)-2-hydroxy-3-(isoindolin-2-yl)propyl)-2-(quinolin-8-yloxy)propanamide]	101 to 1000	–
O=C(NCC(O)CN1Cc2ccccc2C1)c1cccc(-c2ccccn2)c1 (stereo not shown) [compound 13, N-(2-hydroxy-3-(isoindolin-2-yl)propyl)-3-(pyridin-2-yl)benzamide]	1000 to 10000	–
O=C(NC[C@H](O)CN1Cc2ccccc2C1)c1cc(NC2CCOCC2)ncn1 [compound 29]	101 to 1000	–
O=C(NC[C@H](O)CN1Cc2ccccc2C1)c1cccc(NC2CCOCC2)c1 [compound 28]	101 to 1000	–
